Experimental data published in EP0745595A1, “3-(3-Aryloxyphenyl)-1-(substituted methyl)-s-triazine-2,4,6-oxo or thiotrione herbicidal agents” (American Cyanamid Company, priority 1995, dated 1996).

Assays:
Type in all cases: in vivo
[1] = tested on: ABUTILON THEOPHRASTI, MEDIC.; assay: Postemergence herbicidal evaluation, ABUTH (Velvetleaf); settings: rated four to five weeks after treatment, averaged
Procedure, shortened: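 This postemergence herbicide test used two-week-old velvetleaf seedlings grown in jiffy flats. Each compound was sprayed at 40 psi as a dispersion in 50/50 acetone/water with 0.5% TWEEN®20 surfactant. Plants then received routine greenhouse care. After four to five weeks, injury was scored visually on a 0-9 scale against a control, and replicate tests were averaged.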

CHENOPODIUM ALBUM, L. [2] = assay: Postemergence herbicidal evaluation, CHEAL (Lambsquarters, Common); settings: rated four to five weeks after treatment, averaged
Procedure, shortened: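 Postemergence herbicidal activity on Chenopodium album was tested by spraying two-week-old seedlings grown in jiffy flats with compound in acetone/water (50/50) plus 0.5% TWEEN®20, using a 40 psi nozzle. Four to five weeks after treatment, stand, vigor, malformation, size, chlorosis and overall appearance were scored 0-9 relative to controls, with repeat tests averaged.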

[3] = tested on: ABUTILON THEOPHRASTI, MEDIC.; assay: Preemergence herbicidal evaluation, ABUTH (Velvetleaf); settings: four to five weeks after treatment
Procedure, shortened: (§1)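 Rated 0-9 by visual comparison with control (stand, vigor, malformation, size, chlorosis, overall appearance) four to five weeks after preemergence soil spray. Dose equivalent to about 0.125 to 0.50 kg per hectare, applied in aqueous acetone to freshly seeded cups kept in greenhouse.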

[4] = tested on: AMBROSIA ARTEMISIIFOLIA, L.; assay: Preemergence herbicidal evaluation, AMBEL (Ragweed, Common); settings: four to five weeks after treatment
Procedure, shortened: as §1

CASSIA OBTUSIFOLIA, L. = assay: Preemergence herbicidal evaluation, CASOB (Sicklepod); settings: four to five weeks after treatment
Procedure, shortened: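 Preemergence herbicidal activity against sicklepod was assessed by planting seed mixed with potting soil atop about one inch of soil in pint cups. After treatment the cups were watered and handled per standard greenhouse practice. Tests ended four to five weeks later, with plant stand, vigor, malformation, size, chlorosis and overall appearance scored 0-9 relative to a control.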

CHENOPODIUM ALBUM, L. [5] = assay: Preemergence herbicidal evaluation, CHEAL (Lambsquarters, Common); settings: four to five weeks after treatment
Procedure, shortened: as §1

[6] = tested on: ECHINOCHLOA CRUS-GALLI, (L) BEAU; assay: Preemergence herbicidal evaluation, ECHCG (Barnyardgrass); settings: four to five weeks after treatment
Procedure, shortened: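 In this preemergence herbicide test, cups holding seeds of ECHCG sown in potting soil over roughly one inch of soil were treated and then grown under conventional greenhouse care. Tests were ended four to five weeks after treatment, and injury was scored 0-9 from stand, vigor, malformation, size, chlorosis and overall appearance relative to a control.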

[7] = tested on: SETARIA VIRIDIS, (L) BEAU; assay: Preemergence herbicidal evaluation, SETVI (Foxtail, Green); settings: four to five weeks after treatment
Source text: Results of herbicide evaluation are expressed on a rating scale (0-9). The scale is based upon a visual observation of plant stand, vigor, malformation, size, chlorosis and overall plant appearance as compared with a control.
The preemergence herbicidal activity of the test compounds of the present invention is exemplified by the following tests in which the seeds of a variety of monocotyledonous and dicotyledonous plants are separately mixed with potting soil and planted on top of approximately one inch of soil in separate pint cups. […] The treated cups are then placed on greenhouse benches, watered and cared for in accordance with conventional greenhouse procedures. From four to five weeks after treatment, the tests are terminated and each cup is examined and rated according to the rating system provided in Example 40.
The compounds evaluated are reported by compound number given in Example 40.

[8] = tested on: GLYCINE MAX(L) MERR. CV. WILLIAMS; assay: Preemergence herbicidal evaluation, GLXMAW (Soybean, Williams); settings: four to five weeks after treatment
Procedure, shortened: as §1

[9] = tested on: ORYZA SATIVA, L. TEBONNET; assay: Preemergence herbicidal evaluation, ORYSAT (Rice, Tebonnet); settings: four to five weeks after treatment
Procedure, shortened: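 Preemergence herbicidal activity on Tebonnet rice was assessed using pint cups of seeded potting soil kept under conventional greenhouse care after treatment. Tests ended four to five weeks later. Each cup received a 0-9 rating from visual comparison with a control covering stand, vigor, malformation, size, chlorosis and overall appearance.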

[10] = tested on: TRITICUM AESTIVUM, CV. APOLLO; assay: Preemergence herbicidal evaluation, TRZAWO (Wheat, Winter, CV. APOLLO); settings: four to five weeks after treatment
Procedure, shortened: as §1

ZEA MAYS L. = assay: Preemergence herbicidal evaluation, ZEAMX (Corn, Field); settings: four to five weeks after treatment
Procedure, shortened: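 Preemergence herbicidal activity on field corn: seeds in potting soil were sown atop roughly one inch of soil in separate pint cups, treated, and grown under standard greenhouse care. Four to five weeks post-treatment, stand, vigor, malformation, size, chlorosis and overall appearance were compared with a control and scored 0-9.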

CYPERUS IRIA = assay: Preemergence weed control under flooded paddy conditions, CYPIR (Rice Flatsedge); settings: preemergence weeds, rated three to four weeks after treatment
Procedure, shortened: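 This preemergence test mimicked flooded paddy conditions: rice flatsedge propagules were sown in the upper 0.5 cm of silt loam in undrained 32 oz. containers (10.5 cm diameter), with water held 1.5 to 3 cm over the soil. After normal greenhouse care, plants were scored 0-9 for stand, vigor, malformation, size, chlorosis and appearance relative to controls.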

[11] = tested on: CYPERUS SEROTINUS, ROTTB.; assay: Preemergence weed control under flooded paddy conditions, CYPSE (Flatsedge); settings: preemergence weeds, rated three to four weeks after treatment
Procedure, shortened: (§2)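 Visual 0-9 rating against untreated control, covering stand, vigor, malformation, size and chlorosis, scored three to four weeks post-treatment in a greenhouse. Application was into 1.5-3 cm flood water over silt loam sown at 0.5 cm. The 50/50 v/v aqueous/acetone doses were about 0.5, 0.25, 0.125 and 0.063 kg/ha.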

[…], PRESL. = Preemergence weed control under flooded paddy conditions, MOOVA (Monochoria); settings: preemergence weeds, rated three to four weeks after treatment
Procedure, shortened: as §2

SAGITTARIA PYGMAEA, L. = assay: Preemergence weed control under flooded paddy conditions, SAGPY (Arrowhead (Pygmaea)); settings: preemergence weeds, rated three to four weeks after treatment
Procedure, shortened: as §2

[12] = tested on: ORYZA SATIVA, L. TEBONNET; assay: Rice tolerance to post-transplant applications under flooded paddy conditions, ORYSAT (Rice, Tebonnet); settings: post-transplant rice, rated three to four weeks after treatment;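 further: applied to flooded soil surface three days after transplanting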
Procedure, shortened: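 Rated on a visual 0–9 scale against untreated plants 3–4 weeks after application, rice (cv. Tebonnet) tolerance was tested by applying compounds (approx. 0.5–0.063 kg/ha, acetone/water 50/50) to flooded soil three days post-transplant, water kept 1.5–3 cm deep.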

SMILES: CCOC(=O)Cn1c(=O)[nH]c(=O)n(-c2cc(Oc3c(F)cc(C(F)(F)F)cc3Cl)ccc2C#N)c1=O [Compound 10, Ethyl 3-{5-[(2-chloro-α,α,α,6-tetrafluoro-p-tolyl)oxy]-2-cyanophenyl}tetrahydro-2,4,6-trioxo-s-triazine-1(2H)-acetate]
- ABUTH, herbicide rating (0-9) ([1]; Rate 0.125 kg/ha): 9.0
- ABUTH, herbicide rating (0-9) ([1]; Rate 0.250 kg/ha): 9.0
- ABUTH, herbicide rating (0-9) ([1]; Rate 0.500 kg/ha): 9.0
- CHEAL, herbicide rating (0-9) (CHENOPODIUM ALBUM, L. [2]; Rate 0.125 kg/ha): 9.0
- CHEAL, herbicide rating (0-9) (CHENOPODIUM ALBUM, L. [2]; Rate 0.250 kg/ha): 9.0
- CHEAL, herbicide rating (0-9) (CHENOPODIUM ALBUM, L. [2]; Rate 0.500 kg/ha): 9.0
- ABUTH rating ([3]; Rate 0.125 kg/ha): 0.0
- ABUTH rating ([3]; Rate 0.250 kg/ha): 0.0
- ABUTH rating ([3]; Rate 0.500 kg/ha): 0.0
- AMBEL rating ([4]; Rate 0.125 kg/ha): 0.0
- AMBEL rating ([4]; Rate 0.250 kg/ha): 0.0
- AMBEL rating ([4]; Rate 0.500 kg/ha): 0.0
- CASOB rating (CASSIA OBTUSIFOLIA, L.; Rate 0.125 kg/ha): 0.0
- CASOB rating (CASSIA OBTUSIFOLIA, L.; Rate 0.250 kg/ha): 0.0
- CASOB rating (CASSIA OBTUSIFOLIA, L.; Rate 0.500 kg/ha): 0.0
- CHEAL rating (CHENOPODIUM ALBUM, L. [5]; Rate 0.125 kg/ha): 9.0
- CHEAL rating (CHENOPODIUM ALBUM, L. [5]; Rate 0.250 kg/ha): 9.0
- CHEAL rating (CHENOPODIUM ALBUM, L. [5]; Rate 0.500 kg/ha): 9.0
- ECHCG rating ([6]; Rate 0.125 kg/ha): 0.0
- ECHCG rating ([6]; Rate 0.250 kg/ha): 0.0
- ECHCG rating ([6]; Rate 0.500 kg/ha): 0.0
- SETVI rating ([7]; Rate 0.125 kg/ha): 0.0
- SETVI rating ([7]; Rate 0.250 kg/ha): 0.0
- SETVI rating ([7]; Rate 0.500 kg/ha): 0.0
- GLXMAW rating ([8]; Rate 0.125 kg/ha): 0.0
- GLXMAW rating ([8]; Rate 0.250 kg/ha): 0.0
- GLXMAW rating ([8]; Rate 0.500 kg/ha): 0.0
- ORYSAT rating ([9]; Rate 0.125 kg/ha): 2.0
- ORYSAT rating ([9]; Rate 0.250 kg/ha): 2.0
- ORYSAT rating ([9]; Rate 0.500 kg/ha): 2.0
- TRZAWO rating ([10]; Rate 0.125 kg/ha): 0.0
- TRZAWO rating ([10]; Rate 0.250 kg/ha): 0.0
- TRZAWO rating ([10]; Rate 0.500 kg/ha): 0.0
- ZEAMX rating (ZEA MAYS L.; Rate 0.125 kg/ha): 0.0
- ZEAMX rating (ZEA MAYS L.; Rate 0.250 kg/ha): 0.0
- ZEAMX rating (ZEA MAYS L.; Rate 0.500 kg/ha): 0.0
- CYPIR herbicidal rating (CYPERUS IRIA; Rate 0.063 kg/ha): 9.0
- CYPIR herbicidal rating (CYPERUS IRIA; Rate 0.125 kg/ha): 9.0
- CYPIR herbicidal rating (CYPERUS IRIA; Rate 0.250 kg/ha): 9.0
- CYPIR herbicidal rating (CYPERUS IRIA; Rate 0.500 kg/ha): 9.0
- CYPSE herbicidal rating ([11]; Rate 0.063 kg/ha): 0.0
- CYPSE herbicidal rating ([11]; Rate 0.125 kg/ha): 0.0
- CYPSE herbicidal rating ([11]; Rate 0.250 kg/ha): 0.0
- MOOVA herbicidal rating ([…], PRESL.; Rate 0.063 kg/ha): 9.0
- MOOVA herbicidal rating ([…], PRESL.; Rate 0.125 kg/ha): 9.0
- MOOVA herbicidal rating ([…], PRESL.; Rate 0.250 kg/ha): 9.0
- MOOVA herbicidal rating ([…], PRESL.; Rate 0.500 kg/ha): 9.0
- SAGPY herbicidal rating (SAGITTARIA PYGMAEA, L.; Rate 0.063 kg/ha): 0.0
- SAGPY herbicidal rating (SAGITTARIA PYGMAEA, L.; Rate 0.125 kg/ha): 0.0
- SAGPY herbicidal rating (SAGITTARIA PYGMAEA, L.; Rate 0.250 kg/ha): 0.0
- SAGPY herbicidal rating (SAGITTARIA PYGMAEA, L.; Rate 0.500 kg/ha): 0.0
- ORYSAT herbicidal rating (rice tolerance) ([12]; Rate 0.063 kg/ha): 0.0
- ORYSAT herbicidal rating (rice tolerance) ([12]; Rate 0.125 kg/ha): 1.0
- ORYSAT herbicidal rating (rice tolerance) ([12]; Rate 0.250 kg/ha): 1.0
- ORYSAT herbicidal rating (rice tolerance) ([12]; Rate 0.500 kg/ha): 1.0
